From the supplement of paper PMC10307832 come the findings set out here.

Experiment in all cases: relative viability (nuclei count vs DMSO), 5 days (fraction); higher = more cells survive
Compound in assay [1]: CCc1c2c(nc3ccc(OC(=O)N4CCC(N5CCCCC5)CC4)cc13)-c1cc3c(c(=O)n1C2)COC(=O)[C@]3(O)CC [Irinotecan] + CC1(C)CCC(c2ccc(Cl)cc2)=C(CN2CCN(c3ccc(C(=O)NS(=O)(=O)c4ccc(N[C@H](CCN5CCOCC5)CSc5ccccc5)c(S(=O)(=O)C(F)(F)F)c4)cc3)CC2)C1 [Navitoclax] (partner 0.5 µM)
The gist of the method: (§1)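 Relative viability equals treated-well nuclei counts divided by vehicle-well nuclei counts. Counts came from 4× images of lung cancer cell lines grown in 1536-well plates for 5 days after pin-tool dosing on the day after seeding. Dosing used one drug alone or a fixed anchor-drug dose plus five library-drug doses (not always all listed) in √10 steps, and values are medians of duplicate plates.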

Compound in assay [2]: Cn1cc(-c2cnc3ccc4ccc(CS(=O)(=O)NCc5ccccn5)cc4c(=O)c3c2)cn1 [MK-8033] + CS(=O)(=O)CCNCc1ccc(-c2ccc3ncnc(Nc4ccc(OCc5cccc(F)c5)c(Cl)c4)c3c2)o1 [Lapatinib] (partner 2 µM)
The essentials: as §1

Compound in assay [3]: Cn1cc(-c2cnc3ccc4ccc(CS(=O)(=O)NCc5ccccn5)cc4c(=O)c3c2)cn1 [MK-8033] + CC(=O)Nc1cccc(-n2c(=O)n(C3CC3)c(=O)c3c(Nc4ccc(I)cc4F)n(C)c(=O)c(C)c32)c1 [Trametinib] (partner 0.02 µM)
The gist of the method:
as §1

Compound in assay [4]: CC[C@@H](C)CNCC(=O)N1CCC2=C([C@@H]1COC3=CC=CC(=C3)C)C=CS2 [RU-SKI 43] + Cc1cc(Nc2cc(N3CCN(C)CC3)nc(Sc3ccc(NC(=O)C4CC4)cc3)n2)n[nH]1 [Tozasertib] (partner 0.1 µM)
The gist of the method:
as §1

On to UMC-11, for which the relative viability was found to be 0.235 in assay [1] (first compound 0.6325 µM); 0.208 in assay [1] (first compound 2 µM); 0.163 in assay [1] (first compound 6.325 µM); 0.147 in assay [1] (first compound 20 µM); 1.02 in assay [2] (first compound 0.02 µM); 0.522 in assay [2] (first compound 0.06325 µM). Further, the relative viability in assay [2] (first compound 0.2 µM) was 0.866; in assay [2] (first compound 0.6325 µM), 1.04; in assay [2] (first compound 2 µM) it was 0.944; in assay [3] (first compound 0.02 µM) it was 0.714; in assay [3] (first compound 0.06325 µM), 0.457; in assay [3] (first compound 0.2 µM), 0.604. For the same cell line, the relative viability was found to be 0.643 in assay [3] (first compound 0.6325 µM); 0.642 in assay [3] (first compound 2 µM); 0.204 in assay [4] (first compound 0.1 µM); 0.197 in assay [4] (first compound 0.3162 µM); 0.19 in assay [4] (first compound 1 µM); 0.175 in assay [4] (first compound 3.162 µM). Moreover, in assay [4] (first compound 10 µM), the relative viability was 0.18.
